In one assay the test system is TNF-α production. The assay is described as follows: In vitro inhibition of cytokine (TNF-α) production following LPS-stimulation of human PBMC and human whole blood. The note with it: in vitro studies; more potent than thalidomide. Type of assay: cell-based. An excerpt:
In a specific embodiment, the pharmacological properties of 3-(3,4-dimethoxy-phenyl)-3-(1-oxo-1,3-dihydro-isoindol-2-yl)-propionamide are characterized in in vitro studies. Studies examine the effects of the compound on the production of various cytokines. Inhibition of TNF-α production following LPS-stimulation of human PBMC and human whole blood by the compound is investigated in vitro. […] The pharmacological effects of 3-(3,4-dimethoxy-phenyl)-3-(1-oxo-1,3-dihydro-isoindol-2-yl)-propionamide may derive from its action as an inhibitor of the generation of inflammatory cytokines.

In assay [1] the test system is patients with PH. The assay is described as follows: Clinical Study 2 in patients with PH, 12 weeks, placebo controlled. It counts as in vivo, human.
Assay [2] has as its system patients with PH. The assay is described as follows: Expanded clinical study in 213 PH patients, WHO functional class III or IV, 16 weeks. It counts as in vivo, human. The protocol: On the basis of the results of the above study 2, the clinical study is expanded with additional 213 PH patients for at least 16 weeks. The study is conducted with patients with PH, WHO functional class III or IV. Two hundred thirteen patients are randomized to receive either 400 mg bid or 800 mg bid of 3-(3,4-dimethoxy-phenyl)-3-(1-oxo-1,3-dihydro-isoindol-2-yl)-propionamide or placebo in a 1:1:1 ratio. The primary endpoint, a 6-minute walk distance, is evaluated at 16 weeks. The treated patients walk 36.4 meters further at 16 weeks compared to a 7.8 meter reduction in walk distance in the placebo group, for a treatment effect of 44.2 meters. Clinical worsening, defined by death, premature withdrawal from study, hospitalization for worsening of PH or institution of epoprostenol, occur in 37% of placebo-treated patients, compared with 11% of the patients treated with the compound of the invention.

[3] abbreviates: 12 weeks, compared with placebo patients.
The mark [4] stands for this setting: after 12 weeks of treatment, compared with placebo.

In the case of `COc1ccc(C(CC(N)=O)N2Cc3ccccc3C2=O)cc1OC` (centres unmarked) [3-(3,4-Dimethoxy-phenyl)-3-(1-oxo-1,3-dihydro-isoindol-2-yl)-propionamide], the “pharmacological activity profile, potency relative to thalidomide” value with TNF-α production was “five to fifty”. In the assay on patients with PH [1] (setting [3]), the dyspnea score entry is given as “improvements” and the functional class entry was “improvements”. In the assay with patients with PH [1] (setting [4]), the cardiac output entry is “increase”, the pulmonary arterial pressure entry was “decreases” and the pulmonary vascular resistance result is listed as “decreases”. In addition, the “6-minute walk distance, average walked farther” value in the assay with patients with PH [1] (after 12 weeks, 400 mg for four weeks followed by 800 mg for eight weeks, NYHA functional class III) turned out to be 70 meters. Also, the “6-minute walk distance, walked further” value in the assay with patients with PH [2] (at 16 weeks, 400 mg bid or 800 mg bid) amounted to 36.4 meters. Besides, in the assay with patients with PH [2] (at 16 weeks, 400 mg bid or 800 mg bid, placebo 7.8 meter reduction), the “6-minute walk distance, treatment effect versus placebo” value stood at 44.2 meters. In addition, the “clinical worsening (death, premature withdrawal, hospitalization for worsening of PH or institution of epoprostenol), share of patients” value in the assay with patients with PH [2] (at least 16 weeks, placebo 37%) came to 11%. Besides, in the assay with patients with PH [2] (treated versus placebo patients), the functional class entry is given as “improved significantly more”.
